Source: US20220153751A1, “BIFUNCTIONAL COMPOUNDS” (BioTheryX, Inc., priority 2018, published 2022)

Tests used:
Format in all cases: cell-based
IKAROS = target: T1, IKAROS (Homo sapiens, UniProt Q13422+Q96SW2); assay: IKAROS degradation assay (Western blot, MV-4-11 cells); conditions: MV4-11, 6-8 h
T1 construct: endogenous in cells; host or cells: MV-4-11
Method in brief: (§1)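 Immunoblot-based % degradation, scored A–D in 25% steps (D ≥75%). Compound exposure was 6-8 h.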

CK1α = target: T2, CK1α (Homo sapiens, UniProt P48729+Q96SW2); assay: CK1α degradation assay (Western blot, MV-4-11 cells); conditions: MV4-11, 6-8 h
T2 construct: Whole cell extracts were prepared using RIPA buffer; endogenous in cells; host or cells: MV-4-11
T2 sequence (P48729 whole entry): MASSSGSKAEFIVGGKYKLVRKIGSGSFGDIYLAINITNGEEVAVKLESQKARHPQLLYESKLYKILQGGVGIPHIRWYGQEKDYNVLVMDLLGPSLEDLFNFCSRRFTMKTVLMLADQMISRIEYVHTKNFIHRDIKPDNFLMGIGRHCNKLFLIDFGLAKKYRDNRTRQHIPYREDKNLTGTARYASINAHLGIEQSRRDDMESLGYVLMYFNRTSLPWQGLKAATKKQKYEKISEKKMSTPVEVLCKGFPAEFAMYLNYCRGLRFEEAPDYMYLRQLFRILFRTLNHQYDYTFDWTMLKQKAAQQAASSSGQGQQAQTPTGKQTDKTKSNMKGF
T2 sequence (Q96SW2 whole entry): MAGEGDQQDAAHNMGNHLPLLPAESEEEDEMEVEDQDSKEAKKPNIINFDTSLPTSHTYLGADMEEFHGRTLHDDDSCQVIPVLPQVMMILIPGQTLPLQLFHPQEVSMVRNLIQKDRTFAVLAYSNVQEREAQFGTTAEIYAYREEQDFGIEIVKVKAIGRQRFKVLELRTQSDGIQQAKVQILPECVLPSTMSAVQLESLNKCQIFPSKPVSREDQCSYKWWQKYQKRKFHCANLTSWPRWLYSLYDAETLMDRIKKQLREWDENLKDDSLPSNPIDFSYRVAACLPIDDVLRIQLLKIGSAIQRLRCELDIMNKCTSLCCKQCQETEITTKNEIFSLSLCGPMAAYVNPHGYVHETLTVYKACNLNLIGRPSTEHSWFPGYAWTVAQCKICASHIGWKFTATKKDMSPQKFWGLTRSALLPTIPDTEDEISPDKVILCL
T2 sequence (Q16531 whole entry partner): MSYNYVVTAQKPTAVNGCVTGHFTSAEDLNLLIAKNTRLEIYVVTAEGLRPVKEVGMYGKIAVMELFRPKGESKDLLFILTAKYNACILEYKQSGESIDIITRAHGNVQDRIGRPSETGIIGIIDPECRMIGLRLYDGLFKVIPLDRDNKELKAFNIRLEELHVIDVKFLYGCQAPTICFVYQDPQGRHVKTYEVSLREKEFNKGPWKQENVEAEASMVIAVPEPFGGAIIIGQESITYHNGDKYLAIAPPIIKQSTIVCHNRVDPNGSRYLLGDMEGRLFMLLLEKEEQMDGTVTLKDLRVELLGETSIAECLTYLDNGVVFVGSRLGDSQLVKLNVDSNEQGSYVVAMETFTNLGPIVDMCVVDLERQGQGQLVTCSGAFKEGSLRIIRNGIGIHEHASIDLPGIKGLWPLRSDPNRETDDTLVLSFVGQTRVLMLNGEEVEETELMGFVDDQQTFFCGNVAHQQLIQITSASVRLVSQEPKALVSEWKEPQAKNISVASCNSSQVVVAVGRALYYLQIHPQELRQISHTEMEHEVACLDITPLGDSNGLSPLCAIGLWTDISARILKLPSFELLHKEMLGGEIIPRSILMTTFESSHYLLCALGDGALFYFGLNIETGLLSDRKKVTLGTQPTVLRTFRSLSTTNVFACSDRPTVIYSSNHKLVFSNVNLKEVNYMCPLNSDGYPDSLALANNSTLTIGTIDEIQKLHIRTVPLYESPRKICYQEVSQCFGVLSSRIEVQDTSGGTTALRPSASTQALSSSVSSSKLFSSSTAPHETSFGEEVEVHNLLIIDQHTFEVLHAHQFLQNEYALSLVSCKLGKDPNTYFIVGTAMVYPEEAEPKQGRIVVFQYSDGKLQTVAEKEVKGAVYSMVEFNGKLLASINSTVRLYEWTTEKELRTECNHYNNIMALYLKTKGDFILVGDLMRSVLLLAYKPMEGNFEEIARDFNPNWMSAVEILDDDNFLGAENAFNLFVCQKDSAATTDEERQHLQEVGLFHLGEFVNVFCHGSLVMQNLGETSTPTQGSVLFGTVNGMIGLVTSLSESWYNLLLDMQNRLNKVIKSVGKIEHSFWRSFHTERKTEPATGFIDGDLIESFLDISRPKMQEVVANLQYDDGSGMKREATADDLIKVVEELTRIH
Description: MV-4-11 cells were grown in RPMI 1640 media supplemented with 10% fetal bovine serum, streptomycin and penicillin.
Cells were cultured at approximately 10^6 cells per mL and incubated in DMSO or the indicated compound for 6-8 h. Whole cell extracts were prepared using RIPA buffer according to manufacturer's protocol (Pierce). Briefly, 3×10^6 cells were washed once in PBS, the cell pellets were resuspended in RIPA buffer and allowed to incubate for 15 minutes on ice. Cells debris was removed by centrifugation and the cleared whole cell lysates were transferred to new tubes for further analysis.
For Western blot analysis, whole cell protein extracts were separated on 4-12% SDS-polyacrylamide gels, transferred to nitrocellulose and probed with the indicated primary antibodies. Membranes were subsequently washed and probed with the appropriate IRDye secondary antibodies (LI-COR). The signal was detected using the Odyssey Imaging System (LI-COR).
The following antibodies were used in these studies: Anti-eRF3/GSPT1: Abcam, ab126090 (Cambridge, Mass.); Anti-Ikaros: Abcam, ab191394 (Cambridge, Mass.); Anti-CK1α: Abcam, ab108296 (Cambridge, Mass.); Anti-CDK9: Santa Cruz Biotechnology, sc13130 (Dallas, Tex.); Anti-CDK16: Millipore Sigma, HPA001366 (St. Louis, Mo.); 3-actin (8H10comD10) mouse monoclonal antibody: Cell Signaling Technology, #3700 (Danvers, Mass.); IRDye 680RD Goat anti-rabbit antibody: LI-COR, 926-68071 (Lincoln, Nebr.); IRDye 800CW Goat anti-mouse antibody: LI-COR, 926-32210 (Lincoln, Nebr.).
CDK9 activities are shown in Table 4 at two different concentrations. CDK16 activities are shown in Table 5 at two different concentrations. In each of Tables 1-5, the % degradation values are reported as “A”, “B”, “C”, or “D”. “A” represents a % degradation value of less than 25% (value <25%). “B” represents a % degradation value of equal to or more than 25% and less than 50% (25%≤value<50%). “C” represents a % degradation value of equal to or more than 50% and less than 75% (50%≤value<75%). “D” represents a % degradation value of equal to or more than 75% (value ≥75%).

IL-1β = IL-1β inhibition assay, LPS-induced PBMCs / CD14+ monocytes (Meso Scale); conditions: 1 h pretreatment, 100 ng/mL LPS 18-24 h
Method in brief: (§2)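 Thawed human PBMCs or CD14+ mobilized peripheral blood monocytes, 200,000 cells/well in RPMI-1640/10% FBS, pretreated with compound or DMSO 1 h, then stimulated with 100 ng/mL LPS for 18-24 h. Supernatant cytokine measured by Meso Scale; % inhibition binned A–D (<50%, 50–70%, 70–90%, ≥90%), fold-change binned A–D (≤0.1, ≤0.5, ≤1, >1).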

IL-6 = IL-6 inhibition assay, LPS-induced PBMCs / CD14+ monocytes (Meso Scale); conditions: 1 h pretreatment, 100 ng/mL LPS 18-24 h
Method in brief: as §2

GSPT1 = target: T3, GSPT1 (Homo sapiens, UniProt P15170+Q96SW2); assay: GSPT1 degradation assay (Western blot, MV-4-11 cells); conditions: MV4-11, 6-8 h
T3 construct: Whole cell extracts were prepared using RIPA buffer; endogenous in cells; host or cells: MV-4-11
T3 sequence (P15170 whole entry): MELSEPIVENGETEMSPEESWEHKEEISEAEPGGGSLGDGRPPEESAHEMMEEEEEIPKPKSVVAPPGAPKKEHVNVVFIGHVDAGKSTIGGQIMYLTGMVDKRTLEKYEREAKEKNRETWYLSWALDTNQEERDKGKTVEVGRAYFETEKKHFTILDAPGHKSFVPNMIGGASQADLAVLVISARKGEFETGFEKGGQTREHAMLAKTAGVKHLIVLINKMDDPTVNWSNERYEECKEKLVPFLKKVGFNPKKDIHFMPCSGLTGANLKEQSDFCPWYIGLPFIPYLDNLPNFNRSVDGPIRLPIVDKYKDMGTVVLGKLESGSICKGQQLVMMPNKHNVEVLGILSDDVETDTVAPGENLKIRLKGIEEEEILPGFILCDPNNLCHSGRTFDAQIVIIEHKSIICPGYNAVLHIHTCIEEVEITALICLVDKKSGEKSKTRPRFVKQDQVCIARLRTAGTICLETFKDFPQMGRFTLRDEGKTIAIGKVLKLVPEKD
T3 sequence (Q96SW2 whole entry): as the sequence (Q96SW2 whole entry) above
T3 sequence (Q16531 whole entry partner): as the sequence (Q16531 whole entry partner) above
Method in brief: as §1

IL-2 = IL-2 fold-change assay, anti-CD3 stimulated PBMCs (Mesoscale); conditions: PBMC, PBMCs on anti-human CD3, 24 h, fold difference from the DMSO control
Description: For the IL-2 analysis, 96 well plates were precoated with 1 μg/mL anti-human CD3 antibody (OK3, eBioscience Inc., San Diego, Calif.). After washing with PBS, the indicated compound was added (50 μL/well) followed by PBMCs diluted at 3-4 million cells/mL (150 μL/well). Plates were incubated for 24 h and the supernatants collected for Mesoscale IL-2 analysis. IL-2 activity is measured as fold difference from the DMSO control.
In Table 6, the % inhibition values are reported as “A”, “B”, “C”, or “D”. “A” represents a % inhibition value of less than 50% (value <50%). “B” represents a % inhibition value of equal to or more than 50% and less than 70% (50%≤value<70%). “C” represents a % inhibition value of equal to or more than 70% and less than 90% (70%≤value<90%). “D” represents a % inhibition value of equal or more than 90% (value ≥90%). In Table 7, the fold-change values are reported as “A”, “B”, “C”, or “D”. “A” represents a fold-change value of equal to or less than 0.1 (value ≤0.1). “B” represents a fold-change value of more than 0.1 and equal to or less than 0.5 (0.1<value≤0.5). “C” represents a fold-change value of more than 0.5 and equal to or less than 1 (0.5<value≤1). “D” represents a fold-change value of more than 1 (value >1).

TNF-α = TNF-α inhibition assay, LPS-induced PBMCs / CD14+ monocytes (Meso Scale); conditions: 1 h pretreatment, 100 ng/mL LPS 18-24 h
Method in brief: as §2

MOLM-13 cells = assay: MOLM-13 cell viability assay (CellTiter-Glo); conditions: Homo sapiens, MOLM-13, 72 h, 3 days, read-out: MOLM-13 Cell Viability % DMSO at 1 μM
Method in brief: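 MOLM-13 cells at 2500 cells/well were exposed to compound for 3 days at 37 °C. Viability was read by CellTiter-Glo luminescence and expressed as % of DMSO control, binned A (<50%), B (50–<70%), C (70–<90%) or D (≥90%).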

T1 sequence (Q13422 whole entry): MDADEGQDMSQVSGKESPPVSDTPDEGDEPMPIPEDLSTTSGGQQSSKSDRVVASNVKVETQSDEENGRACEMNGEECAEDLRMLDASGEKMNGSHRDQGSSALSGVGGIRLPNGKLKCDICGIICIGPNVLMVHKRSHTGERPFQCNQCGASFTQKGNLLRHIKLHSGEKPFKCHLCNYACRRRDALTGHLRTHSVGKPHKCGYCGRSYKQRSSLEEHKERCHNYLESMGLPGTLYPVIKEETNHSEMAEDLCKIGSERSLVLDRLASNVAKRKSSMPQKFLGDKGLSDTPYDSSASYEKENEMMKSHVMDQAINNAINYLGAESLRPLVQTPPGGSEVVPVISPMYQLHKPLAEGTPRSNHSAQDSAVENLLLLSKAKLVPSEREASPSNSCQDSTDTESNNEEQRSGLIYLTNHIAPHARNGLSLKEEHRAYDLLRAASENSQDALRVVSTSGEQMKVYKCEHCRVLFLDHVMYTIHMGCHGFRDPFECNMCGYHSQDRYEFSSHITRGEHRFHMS
T1 sequence (Q96SW2 whole entry): as the sequence (Q96SW2 whole entry) above
T1 sequence (Q16531 whole entry partner): as the sequence (Q16531 whole entry partner) above

Row | Dmax at 1 µM (IKAROS) | Dmax at 1 µM (CK1α) | Dmax at 1 µM (GSPT1) | SMILES | inhibition at 1 µM (IL-1β) | inhibition at 1 µM (IL-6) | fold induction at 1 µM (IL-2) | inhibition at 1 µM (TNF-α) | viability at 1 µM (MOLM-13 cells)
1 | 50 to 75% | 25 to 50% | 25 to 50% | Cn1ncc(-c2nc(N[C@H]3CC[C@H](NCC(=O)NCCCCNCC(=O)NCc4scc5c4C(=O)N(C4CCC(=O)NC4=O)C5=O)CC3)ncc2Cl)c1CC1CC1 (stereo partly shown) [Compound 51, 2-(((1r,4r)-4-((5-chloro-4-(5-(cyclopropylmethyl)-1-methyl-1H-pyrazol-4-yl)pyrimidin-2-yl)amino)cyclohexyl)amino)-N-(4-((2-(((5-(2,6-dioxopiperidin-3-yl)-4,6-dioxo-5,6-dihydro-4H-thieno[3,4-c]pyrrol-1-yl)methyl)amino)-2-oxoethyl)amino)butyl)acetamide] | > 90% | > 90% | ≤ 0.1 | > 90% | > 90%
2 |  | < 25% | 50 to 75% | Cn1ncc(-c2nc(N[C@H]3CC[C@H](NC(=O)CCCCCCNCC(=O)Nc4cccc5c4CN([C@H]4CCCC(=O)NC4=O)C5=O)CC3)ncc2Cl)c1CC1CC1 [Compound 9, N-((1r,4r)-4-((5-chloro-4-(5-(cyclopropylmethyl)-1-methyl-1H-pyrazol-4-yl)pyrimidin-2-yl)amino)cyclohexyl)-7-((2-((2-((S)-2,7-dioxoazepan-3-yl)-1-oxoisoindolin-4-yl)amino)-2-oxoethyl)amino)heptanamide] | 50 to 70% | < 50% | 0.5 to 1 | 50 to 70% | < 50%
3 |  | 50 to 75% | 25 to 50% | Cn1ncc(-c2ncnc(N[C@H]3CC[C@H](NCCCCCCCCNC(=O)NCc4cc5c(s4)C(=O)N(C4CCC(=O)NC4=O)C5)CC3)n2)c1CC1CC1 (stereo partly shown) [Compound 65, 1-(8-(((1r,4r)-4-((4-(5-(cyclopropylmethyl)-1-methyl-1H-pyrazol-4-yl)-1,3,5-triazin-2-yl)amino)cyclohexyl)amino)octyl)-3-((5-(2,6-dioxopiperidin-3-yl)-6-oxo-5,6-dihydro-4H-thieno[2,3-c]pyrrol-2-yl)methyl)urea] | < 50% | < 50% | 0.5 to 1 | < 50% | < 50%

Second part, the molecule before the results:

Row | SMILES | Dmax at 1 µM (IKAROS) | Dmax at 1 µM (CK1α) | Dmax at 1 µM (GSPT1) | inhibition at 1 µM (IL-1β) | inhibition at 1 µM (IL-6) | fold induction at 1 µM (IL-2) | inhibition at 1 µM (TNF-α) | viability at 1 µM (MOLM-13 cells)
4 | Cn1ncc(-c2nc(N[C@H]3CC[C@H](NCC(=O)NCCOCCOCCOCCNc4cccc5c4CN(C4CCC(=O)NC4=O)C5=O)CC3)ncc2Cl)c1CC1CC1 (stereo partly shown) [Compound 55, 2-(((1r,4r)-4-((5-chloro-4-(5-(cyclopropylmethyl)-1-methyl-1H-pyrazol-4-yl)pyrimidin-2-yl)amino)cyclohexyl)amino)-N-(2-(2-(2-(2-((2-(2,6-dioxopiperidin-3-yl)-1-oxoisoindolin-4-yl)amino)ethoxy)ethoxy)ethoxy)ethyl)acetamide] | ≥ 75% | 25 to 50% | 50 to 75% | > 90% | > 90% | ≤ 0.1 | > 90% | > 90%
5 | CC(C)(C)c1cnc(CSc2cnc(NC(=O)C3CCN(CC(=O)NCCOCCNC(=O)NCc4cc5c(s4)C(=O)N(C4CCC(=O)NC4=O)C5)CC3)s2)o1 (stereo not shown) [Compound 3, 3-{8-Oxo-3-[(3-{2-[2-(2-{4-[(5-{[5-(tert-butyl)-1,3-oxazol-2-yl]methylthio}-1,3-thiazol-2-ylamino)carbonyl]-1-piperidyl}acetylamino)ethoxy]ethyl}ureido)methyl]-2-thia-7-azabicyclo[3.3.0]octa-1(5),3-dien-7-yl}-2,6-piperidinedione] |  | 25 to 50% |  | > 90% | > 90% | 0.1 to 0.5 | 70 to 90% | > 90%
6 | CC(C)(C)c1cnc(CSc2cnc(NC(=O)C3CCN(CCOCCOCCOCCOCCNCC(=O)NCc4scc5c4CN(C4CCC(=O)NC4=O)C5=O)CC3)s2)o1 (stereo not shown) [Compound 58, N-(5-(((5-(tert-butyl)oxazol-2-yl)methyl)thio)thiazol-2-yl)-1-(1-(5-(2,6-dioxopiperidin-3-yl)-4-oxo-5,6-dihydro-4H-thieno[3,4-c]pyrrol-1-yl)-3-oxo-8,11,14,17-tetraoxa-2,5-diazanonadecan-19-yl)piperidine-4-carboxamide] | < 25% | ≥ 75% |  | > 90% | 70 to 90% | 0.5 to 1 | < 50% | 50 to 70%
7 | CC(C)(C)c1cnc(CSc2cnc(NC(=O)C3CCN(CC(=O)NCCCCCCCNC(=O)NCc4cc5c(s4)C(=O)N(C4CCC(=O)NC4=O)C5)CC3)s2)o1 (stereo not shown) [Compound 18, N-(5-(((5-(tert-butyl)oxazol-2-yl)methyl)thio)thiazol-2-yl)-1-(2-((7-(3-((5-(2,6-dioxopiperidin-3-yl)-6-oxo-5,6-dihydro-4H-thieno[2,3-c]pyrrol-2-yl)methyl)ureido)heptyl)amino)-2-oxoethyl)piperidine-4-carboxamide] | 25 to 50% | 50 to 75% | 50 to 75% | > 90% | > 90% | ≤ 0.1 | 70 to 90% | > 90%
8 | Cn1ncc(-c2nc(N[C@H]3CC[C@H](NCC(=O)NCCOCCOCCOCCNc4cccc5c4CN(C4CCC(=O)NC4=O)C5=O)CC3)ncc2F)c1CC1CC1 (stereo partly shown) [Compound 56, 2-(((1r,4r)-4-((4-(5-(cyclopropylmethyl)-1-methyl-1H-pyrazol-4-yl)-5-fluoropyrimidin-2-yl)amino)cyclohexyl)amino)-N-(2-(2-(2-(2-((2-(2,6-dioxopiperidin-3-yl)-1-oxoisoindolin-4-yl)amino)ethoxy)ethoxy)ethoxy)ethyl)acetamide] | 50 to 75% | 25 to 50% |  | > 90% | > 90% | ≤ 0.1 | > 90% | > 90%
